Assay results from patent US5789589A, “Guanine analog phosphates” (Drug Innovation & Design, Inc., priority 1996, dated 1998).

Tests used:
in vitro = format: cell-based; conditions: african green monkey, vero cells
Procedure: (§1) Vero (continuously passaged African green monkey kidney) was obtained from the American Type Culture Collection (ATCC) (Rockville, Md.). Growth medium was Medium 199, 5% FBS and 0.1% NaHCO3. Test medium was Eagle's minimum essential medium with non-essential amino acids (MEM), with 2% FBS, 0.18% NaHCO3 and 50 μg gentamicin/ml. The growth medium contained no antibiotics.
(§2) Compounds were weighed and a sufficient amount added to DMSO (American Type Culture Collection, Rockville, Md.) to prepare a solution at 20 mg/ml.
(§3) Cells were seeded to 96-well flat-bottomed tissue culture plates (Corning Glass Works, Corning, N.Y.), 0.2 ml/well, at the proper cell concentration, and incubated overnight at 37° C. in order to establish cell monolayers. The growth medium was decanted and the various dilutions of test compound were added to each well (4 wells/dilution, 0.1 ml/well). Compound diluent medium was added to cell and virus control wells (0.1 ml/well). Virus, diluted in test medium, was added to compound test wells (3 wells/dilution of compound) and to virus control wells at 0.1 ml/well. Virus was added approximately 5 minutes after compound. Test medium without virus was added to all toxicity control wells (1 well/dilution of each test compound) and to cell control wells at 0.1 ml/well. The plates were sealed with plastic wrap (SARAN™) and incubated at 37° C. in a humidified incubator with 5% CO2, 95% air atmosphere until virus control had adequate cytopathic effect (CPE) readings. This was usually achieved after 72 hours. Cells were then examined microscopically for CPE, this being scored from 0 (normal cells) to 4 (maximal, 100%, CPE). The cells in the toxicity control wells were observed microscopically for morphologic changes attributed to cytotoxicity. This cytotoxicity was graded as: T (assigned 100% toxicity), PVH (assigned 80% cytotoxicity), PH (assigned 60% cytotoxicity), P (assigned 40% cytotoxicity), PSI (assigned 20% cytotoxicity), and 0 (normal cells). The 50% effective dose (ED50) and 50% cytotoxic dose (CD50) were calculated by regression analysis of the virus CPE data and the toxicity control data, respectively.

TK^+ HSV 1 = assay: In vitro antiviral activity (CPE) against TK^+ HSV-1 (BWVL#10186) in Vero cells; format: cell-based, Herpes type 1 virus (HSV-1), human clinical isolate; conditions: for EC50: Human alphaherpesvirus 1, TK^+ HSV 1, Vero cells, CPE, about 72 hours, read-out: ED50 (the source's name); for Activity compared with acyclovir (in words): in vitro, TK^+ HSV-1
Procedure: (§4) The following test were carried out essentially as described by Sidwell and Huffman (Sidwell, et al., App. Microbiol., 22:797-801 (1971)), and was used in the reports on the in vitro antiviral activity of ribavirin (Sidwell, et al. Science, 177:705-706 (1972); Huffman, et al., Antimicrob. Ag. Chemother., 3:235-241 (1973)).
(§5) Herpes type 1 virus (HSV-1), BWVL#10186, is a thymidine kinase positive (TK^+) human clinical isolate provided by Dr. M. Nixon Ellis, Burroughs Wellcome Co. (Research Triangle Park, N.C.). The BWVL#10168 strain of HSV-1 is a TK- patient isolate (resistant partner to 10186) that was also provided by Dr. Ellis. Both strains were prepared in Vero cells, ampuled, and frozen at -80° C. Antiviral testing was performed in Vero cells.
as §1, §2, §3
(§6) A known active substance, acyclovir, was run in the same manner as above for each batch of compounds tested.

herpes simplex labialis = conditions: cited from earlier work
TK^- HSV 1 = assay: In vitro antiviral activity (CPE) against TK^- acyclovir resistant HSV-1 (BWVL#10168) in Vero cells; format: cell-based, Herpes type 1 virus (HSV-1), patient isolate; conditions: for EC50: Human alphaherpesvirus 1, Vero, 72 h, read-out: ED50; for Activity relative to acyclovir (fold more active): in vitro, acyclovir resistant (TK^-) HSV-1
Procedure: as §4, §5, §1, §2, §3, §6

HSV-1 = assay: Dermal HSV-1 infection in guinea pigs, topical treatment; format: in vivo, Female Hartley outbred guinea pigs; conditions: for Comparison with U.S. ZOVIRAX in all three efficacy parameters: Mann-Whitney test, p=0.0008, 0.0008, 0.001; for Reduction in lesion number (in words): guinea pigs with dermal HSV-1 lesions, compared to vehicle; for Lesion Number, % Diff vs placebo / Lesion virus titer, % Diff vs placebo / Total Lesion Area, % Diff vs placebo: positive value = reduction vs vehicle, p=0.012; for Lesion virus titer, mean: skin taken Day 4, plaque formation in VERO cells; for Lesion Number, mean: prodrug cream (1.2% Prodrug 1 or 1.87% Prodrug 2) 2x/day on Days 1, 2 and 3
Procedure: The formulation for Prodrugs 1 and 2 contained 5% EL-620 EMULPHOR (polyoxyethylated castor oil) (Rhone Poluenc), 5% CARBOPOL (Carboxypolymethylene, sodium salt) (B.F. Goodrich), 10% ethanol and 1.2% by weight Prodrug 1 (or 1.87% by weight Prodrug 2). The balance of the formulation consisted of water.
EL-620 EMULPHOR and water were mixed and ultrasonicated to give a clear emulsion, to which the ethanol was added. The prodrug was then added, and the mixture was ultrasonicated to give an opalescent emulsion. The sodium carbopol was then added to the emulsion and mixed until to homogeneity.
The placebo was prepared identically to the pharmaceutical compositions except that the prodrugs were omitted.
Female Hartley outbred guinea pigs, 400 to 450 grams, were obtained from Charles River Breeding Labs, Wilmington, Mass. Animals were anesthetized with 25 mg/kg ketamine and 5 mg/kg xylazine SQ. Hair on the dorsum from the shoulders to the rump was removed with electric clippers followed by two 5-10 minute applications of a chemical depilatory. A grid of four areas was demarcated with a pen on both sides of the spine at levels corresponding to mid back and rump.
Undiluted HSV-1 virus stock (0.035 ml) was applied to each different area and introduced through the skin at well-spaced sites at ten activations of a six-pronged spring-loaded vaccination instrument (Sterneedle, Pan Ray Division, Ormont Drug, Englewood, N.J.). The day of inoculation is Day 0. Approximately 250 mg of drug or placebo was applied to the areas according to the dosing regimen on Days 1, 2 and 3. Eight guinea pigs were used during the experiments allowing eight comparisons between each drug and its placebo. 5% ZOVIRAX ointment U.S.A. (Acyclovir) applied 4×/day was used as a control.
On Day 4 regrown hair on the dorsum of the guinea pigs was removed with one 3-4 minute application of a chemical depilatory. HSV lesions were counted and Polaroid pictures of the animals' backs were taken. The animals were sacrificed using CO2 gas and the full thickness skin of the back was removed by dissection. The square of the skin from each of the four treatment areas was placed into 15 mls of tissue culture medium with 2% FBS in an ice bath. The samples were then homogenized in a stomacher Lab Blender 80 (Tekmar Co.). Debris was pelleted by centrifugation and the supernatants collected and frozen at -70 C. until assay for infectivity by plaque formation in VERO cells.
The mean and standard deviation for number of lesions, total lesion area and lesion virus titer were computed for each treatment pair. Paired data (drug/vehicle) were evaluated by the Wilcoxon signed-rank test using percent differences between log10 derivatives of mean lesions severity at drug-treated sites compared to the vehicle-treated sites.

pig liver esterase = assay: Incubation with pig liver esterase in phosphate buffered D2O, NMR; format: in vitro ADME
Herpes Simplex Virus-1 = assay: Healing of vaginal lesions in mice caused by Herpes Simplex Virus-1; format: in vivo; conditions: topical application
[1] = prodrug cream 2x/day on Days 1, 2 and 3, assessed Day 4, n=8
[2] = prodrug cream 2x/day on Days 1, 2 and 3, n=8
[3] = prodrug cream 2x/day on Days 1, 2 and 3

SMILES | CC50 (in vitro) | EC50 (TK^+ HSV 1) | Effectiveness of oral administration in treatment of cold sores (herpes simplex labialis; oral) | Response of cold sores to topical treatment (herpes simplex labialis; topical) | EC50 (TK^- HSV 1) | Comparison with U.S. ZOVIRAX in all three efficacy parameters (HSV-1) | Reduction in lesion number (in words) (HSV-1) | Lesion Number, median (HSV-1; [1]) | Total Lesion Area, mean (HSV-1; [1]) | Total Lesion Area, median (HSV-1; [1]) | Lesion virus titer, median (HSV-1; [2]) | Lesion Number, % Diff vs placebo (HSV-1; [3]) | Lesion virus titer, % Diff vs placebo (HSV-1; [3]) | Total Lesion Area, % Diff vs placebo (HSV-1; [3]) | Lesion virus titer, mean (HSV-1; [2]) | Lesion Number, mean (HSV-1; assessed Day 4, n=8) | Activity compared with acyclovir (in words) (TK^+ HSV 1) | Degradation by pig liver esterase (pig liver esterase) | Activity relative to acyclovir (fold more active) (TK^- HSV 1) | Healing of vaginal lesions (Herpes Simplex Virus-1)
Nc1nc2c(ncn2COCCO)c(=O)[nH]1 [Acyclovir, acyclovir, reference compound] | > 100 µg/mL | 1.4 µM | only partially effective | do not respond to the topical treatment | 35 µM | – | – | – | – | – | – | – | – | – | – | – | – | – | – | –
COC(=O)CC(OP(=O)(OCCOCn1cnc2c(=O)[nH]c(N)nc21)OC(CC(=O)OC)c1ccc(OC(C)=O)cc1)c1ccc(OC(C)=O)cc1 (stereo not drawn) [Prodrug 1] | > 100 µg/mL | 4.6 µM | – | – | 17 µM | worked significantly better than U.S. ZOVIRAX in all three of the efficacy parameters measured | dramatic reduction in lesion number | 32.0 | 106 mm2 | 107 mm2 | 3.17 log (pfu/ml) | 45% | 96% | 59% | 3.07 log (pfu/ml) | 32 | same order of magnitude as acyclovir | degraded to acyclovir monophosphate and p-hydroxycinnamic | about 2 × | –
COC(=O)CC(OP(=O)(OCCOCn1cnc2c(=O)[nH]c(N)nc21)OC(CC(=O)OC)c1ccc(OC(=O)C(C)(C)C)cc1)c1ccc(OC(=O)C(C)(C)C)cc1 (stereo not drawn) [Prodrug 2] | > 100 µg/mL | 6.3 µM | – | – | 7.5 µM | worked significantly better than U.S. ZOVIRAX in all three of the efficacy parameters measured | dramatic reduction in lesion number | 36.0 | – | 109 mm2 | 3.12 log (pfu/ml) | 35% | 97% | 57% | 2.87 log (pfu/ml) | 37 | same order of magnitude as acyclovir | – | about 5 × | effective in promoting the healing of vaginal lesions in mice
COC(=O)CC(O[PH](=O)OCCOCn1cnc2c(=O)[nH]c(N)nc21)c1ccc(OC(=O)C(C)(C)C)cc1 (stereo not drawn) [Prodrug 3] | > 100 µg/mL | 5.5 µM | – | – | 37 µM | – | – | – | – | – | – | – | – | – | – | – | same order of magnitude as acyclovir | – | – | –
